Source: patent US20250283050A1, “METHOD OF CANCER TREATMENT” (priority 2021, published 2025)

Tests used:
[1] = tested on: colorectal cancers (CRC) tumor cells; assay: en bloc CRC culture: tumor cell death by PI-staining and FACS; type: cell-based, human
Method: (§1) To this end, en bloc colorectal cancers (CRC) or control non-tumor colon mucosal tissues from the same patients were incubated in RPMI based media and treated with DOX for 3 days. The effects of the treatment on tumor or normal cells were then determined by PI-staining and FACS analysis.
(§2) To this end, en bloc CRC tumor or control colon mucosal tissues were treated with DOX at low non-cytotoxic dosage and then co-cultured with TAMs transfected with Hom-1 or control GFP. After 5 days of co-culturing, the effects of the treatment on the survival of tumor or control normal epithelial cells were determined by PI staining and FACS analysis.
(§3) Tumor tissue were washed with 1×PBS buffer plus antibiotics and then cut into 0.5 cm pieces. Tissues were cultured in 2 mL of RPMI 1640 medium, supplemented with 2-10% FBS (Sigma) and 1% antibiotic-antimycotic solution (Gibco) in 24-well plate (Corning). The cultures were incubated at a 37° C., 5% CO2 incubator. […] To evaluate the effect of chemotherapeutic agents, chemo-reagents at indicated concentration or PBS was used instead of the anti-PD-1 antibody. For en bloc tissue and macrophage co-culture assay, 0.25×10^6 GFP-Hom-1 or control GFP transfected autologous macrophages of the same patient were added to the en bloc tissue culture wells. After gently shaking, the plate was incubated at 37° C., 5% CO2 for 3-5 days. The en bloc tissues were then subjected to single 1 cell isolation and analysis as described.
Single cell suspensions generated from en bloc tissue culture were washed with FACS staining solution (PBS plus 2% FBS), fixed and permeabilized (Invitrogen) and then stained with Ber-EP4 antibodies for normal epithelial cells and CK7, CK19 and CK20 for cancer cells for 30 minutes on ice. After washes with FACS staining solution, cells were stained with FITC-conjugated secondary antibodies for 30 minutes on ice. The cells were then washed with FACS staining solution and fixed in 2% paraformaldehyde in PBS for 30 min or overnight. The cells were washed and resuspended in 200 μL of FACS staining solution and 5 μL of PI staining solution (eBioscience/Fisher Scientific) were added in the solution for 15 minutes. Cell viability were then analyzed with a flow cytometry.

[2] = tested on: non-small cell lung cancer (NSCLC); assay: en bloc tumor culture with chemotherapeutic agent and Hom-1-TAMs: NSCLC; type: cell-based; conditions: agent plus Hom-1-TAMs
Method: (§4) Besides CRC, Hom-1-TAMs reverse immune polarity of PDAC and NSCLC TME (data not shown). The effects of Hom-1-TAM on tumoricidal effects of DOX were further explored on other tumor types, such as PDAC, NSLC, esophageal cancer and stomach cancers.
(§5) Additional chemo-reagents used in this study are listed below.
as §3

[3] = tested on: esophageal cancer; assay: en bloc tumor culture with chemotherapeutic agent and Hom-1-TAMs: esophageal cancer; type: cell-based; conditions: agent plus Hom-1-TAMs
Method: as §4, §5, §3

[4] = tested on: normal epithelial cells of colon mucosal tissues; assay: en bloc control colon mucosal tissue culture: normal epithelial cell death by PI-staining and FACS; type: cell-based, human; conditions: DOX 3 days
Method: as §1, §2
Tumor tissue were washed with 1×PBS buffer plus antibiotics and then cut into 0.5 cm pieces. Tissues were cultured in 2 mL of RPMI 1640 medium, supplemented with 2-10% FBS (Sigma) and 1% antibiotic-antimycotic solution (Gibco) in 24-well plate (Corning). The cultures were incubated at a 37° C., 5% CO2 incubator. […]
Single cell suspensions generated from en bloc tissue culture were washed with FACS staining solution (PBS plus 2% FBS), fixed and permeabilized (Invitrogen) and then stained with Ber-EP4 antibodies for normal epithelial cells and CK7, CK19 and CK20 for cancer cells for 30 minutes on ice. […] Cell viability were then analyzed with a flow cytometry.

[5] = tested on: primary human CRC; assay: NSG-PDX model of primary human CRC; type: in vivo; conditions: low dosage DOX 1.5 mg/kg tail-vein, alone
Method: To this end, NSG-PDX models of primary human CRC were established according to established methods. One week post-implantation of primary CRC tumors, the mice were tail-vein injected with a low dosage of Hom-1-TAMs. Three days later, low dosage DOX at 1.5 mg/kg were given through tail-vein injection and the DOX injection were repeated after two weeks.
Animal models of primary human colon cancers were developed previously. Briefly, 8-week-old NOD. Cg-Prkdc^scid Il2rg^tm1Wjl/SzJ mice (commonly known as NOD scid gamma, or NSG mice) were purchased from the Jackson Laboratory and maintained under specific pathogen-free conditions. Tumors were cut into around 0.5 cm pieces and then surgically implanted into subcutaneous space in flank of NSG mice. After one week of implantation, 0.25×10^6 TAMs transfected with GFP-Hom-1 or control GFP were injected into the mice through tail vain. After three days, 1.5 mg/Kg of DOX or PBS control were tail-vain injected and then repeated after two weeks. The tumor growth was monitored twice weekly and measured by a caliper for 6 weeks. Tumor volumes were calculated according to the formula ½ (length×width^2).

[6] = tested on: NFκB; assay: NF-κB activation assay in monocytes; type: cell-based; conditions: primary human monocytes; 24 hour
Method: To determine whether NFκB plays a role in DOX activation of Hom-1 expression in monocytes, the effects of DOX on NFκB expression in primary monocytes were determined.
Human monocytes were treated with DOX at indicated concentration or PBS control. After 24 hour of treatment, the nuclear extracts were prepared using a nuclear extract kit (Active Motif, Cat. 40010). The DNA-binding activity of NF-κB p65 was determined using the TransAm assays (Active Motif, Cat. 40097) according to the manufacturer's instructions. Briefly, 2.5 μg nuclear extracts of each sample were incubated with immobilized NF-κB-specific oligonucleotides for 1 hr. The p65 protein bound to DNA was then visualized by incubation with p65-specific antibody, HRP-conjugated secondary antibody and developing solution and measured with a microplate reader with the absorbance at 450 nm.

[7] = tested on: TAMs and TIL in en bloc CRC; assay: en bloc CRC culture: DOX effects on TAM plasticity and TIL differentiation; type: cell-based, human
From the text: As DOX induces Hom-1 expression in TAMs in en bloc CRC culture (data not shown), this example illustrates the involvement of Hom-1 in mediating therapeutic effects of DOX.
Consistent with a key regulatory role of Hom-1 in mediating DOX effects on TAM plasticity and the immune landscape of TME, it was shown that knockdown of Hom-1 expression in TAMs attenuated DOX effects on the expression of M1 and M2 markers and inhibited DOX-induced secretion of pro-inflammatory cytokines (data not shown).
as §3

[8] = tested on: PDAC; assay: en bloc tumor culture with chemotherapeutic agent and Hom-1-TAMs: PDAC; type: cell-based; conditions: agent plus Hom-1-TAMs
Method: as §4, §5, §3

[9] = tested on: stomach cancer; assay: en bloc tumor culture with chemotherapeutic agent and Hom-1-TAMs: stomach cancer; type: cell-based; conditions: agent plus Hom-1-TAMs
Method: as §4, §5, §3

[10] = tested on: NFκB binding to Hom-1 promoter; assay: ChIP assay of NFκB at Hom-1 promoter; type: cell-based; conditions: human monocytes, 1 μM DOX, 24 hours
Method: Human monocytes were treated with 1 μM DOX or PBS control for 24 hours and harvested for ChIP assay. The ChIP procedure was performed with a kit from Upstate biotechnology following the manufacturer's instructions. The NFκB p65 antibody (Cell Signaling Technology, Cat# 8242) was used for the immunoprecipitation. The Rabbit IgG antibody was served as a negative control. The Hom-1 promotor region containing a putative NFκB binding site was amplified with specific primers 5′-[…]-3′ and 5′-[…]-3′. All PCR products were separated on 1% agarose gel and visualized by ethidium bromide staining.

[11] = tested on: Hom-1 expression in TAMs; assay: DOX induction of Hom-1 expression; type: cell-based, human
Method: Total RNA was isolated by the TRIzol reagent (Life Technologies) and RNA amounts were measured by NanoDrop 2000 (Thermo Scientific). Equal amount of RNA was used for first-strand cDNA synthesis with SuperScript III First-Strand Synthesis System (Life Technologies) according to the manufacturer's protocol. The AccuPrime Taq DNA polymerase system (Life Technologies) was used to amplify Hom-1 cDNA with conventional PCR. Quantitative measurements of Hom-1 and other cDNA were carried out with SYBR Green, using a Mastercycler ep Gradient S (Eppendorf). GAPDH was used as a house keeping gene to normalize mRNA expression. Relative expression profiles of mRNAs were calculated using the comparative Ct method (DDCT method).
as §3, with “After gently shaking, the plate was incubated at 37° C., 5% CO2 for 3-5 days. The en bloc tissues were then subjected to single 1 cell isolation and analysis as described.” left out

[12] = en bloc CRC culture, agent alone, dose range

Structure (SMILES)	cytocidal effects on tumor cells [1, 12]	tumoricidal effects promoted by Hom-1-TAMs ([1]; en bloc CRC culture, agent plus Hom-1-TAMs)	tumoricidal effects promoted by Hom-1-TAMs [2]	tumoricidal effects promoted by Hom-1-TAMs [3]	cytotoxic effects on normal epithelial cells [4]	inhibition of CRC tumorigenesis [5]	cytocidal effects on tumor cells ([1]; en bloc CRC, DOX alone at non-cytotoxic concentration, 5 days)	NFκB expression [6]	CD4 T cell differentiation into Treg cells [7]	CD8 T cell activation [7]	TAM phenotype (M1/M2 markers and cytokines) [7]	tumoricidal effects promoted by Hom-1-TAMs [8]	tumoricidal effects promoted by Hom-1-TAMs [9]	interaction of NFκB with Hom-1 promoter [10]	Hom-1 expression ([11]; cancer cells and macrophages)	TAM Hom-1 expression ([11]; en bloc CRC culture)
O=c1[nH]cc(F)c(=O)[nH]1 [5-FU]	dosage-dependent cytocidal effects on tumor cells	promoted														
N.N.[Cl][Pt][Cl] [Cisplatin]			promoted	promoted												
COc1cccc2c1C(=O)c1c(O)c3c(c(O)c1C2=O)C[C@@](O)(C(=O)CO)C[C@@H]3O[C@H]1C[C@H](N)[C@H](O)[C@H](C)O1 [DOX, Doxorubicin]	dosage-dependent cytocidal effects on tumor cells		promotes tumoricidal function	promotes tumoricidal function	less cytotoxic effects on normal epithelial cells	small discernable inhibition on CRC tumorigenesis	little cytocidal effects on tumor cells	induces NFκB expression in primary human monocytes in a dosage dependent manner	reduced CD4 T cell differentiation into Treg cells	increased CD8 T cell activation	shifted the population of TAMs from M2-like phenotype to M1-like phenotype	promotes tumoricidal function	promotes tumoricidal function	promoted the interaction of NFκB with Hom-1 promoter	potent inducer of Hom-1 expression both in cancer cells and in macrophages	induced TAM Hom-1 expression in the en bloc CRC culture in a dosage dependent manner
